The values below come from patent US12441733B2, “Substituted 2,4-dioxotetrahydropyrimidines as intermediates in the synthesis of bruton's tyrosine kinase inhibitors” (Novartis AG, priority 2018, dated 2025).

The test system of the experiment is TMD8 cells. The experiment is described as follows: Resazurin cell viability (proliferation) assay in TMD8 DLBCL cells. In kind it is cell-based. As to conditions: Homo sapiens, TMD8 cells (BTK dependent), 72 h, 50% growth inhibition vs vehicle, read-out: TMD8 Prol GI50. The gist of the method:
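TMD8 cells were seeded at 1×10^4 per well and treated 3 h later with compound, in an 8-point 1:4 dilution series starting at 1 μM, or DMSO, for 72 h at 37° C. Resazurin was added at 13 μg/ml final for the last 2 h, and fluorescence was read at ex 530/em 600 nm. GI50 versus vehicle was derived by curve fitting from triplicates.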
A general note: Resazurin is reduced to fluorescent resorufin, in cell work by metabolically active cells.

Each structure is given as a SMILES string.

In general, GI50 refers to the concentration that inhibits growth by half.

With `CCOc1ccc(C(=O)N2CCC3(CCN(Cc4ccc(-c5cc6c(-c7cc(F)cc(NC(=O)c8ccc(C(C)(C)O)cc8F)c7C)ncnc6[nH]5)cc4)CC3)CC2)cc1N1CCC(=O)NC1=O` [Compound 4, N-(3-(6-(4-((9-(3-(2,4-Dioxotetrahydropyrimidin-1(2H)-yl)-4-ethoxybenzoyl)-3,9-diazaspiro[5.5]undecan-3-yl)methyl)phenyl)-7H-pyrrolo[2,3-d]pyrimidin-4-yl)-5-fluoro-2-methylphenyl)-2-fluoro-4-(2-hydroxypropan-2-yl)benzamide], the GI50 came to 1.84 nM.

`Cc1ccc(C(=O)N2CCC3(CCN(CCc4ccc(-c5cc6c(-c7cc(F)cc(NC(=O)c8ccc(C(C)(C)O)cc8F)c7C)ncnc6[nH]5)cc4)CC3)CC2)cc1N1CCC(=O)NC1=O` [Compound 5, N-(3-(6-(4-(2-(9-(3-(2,4-Dioxotetrahydropyrimidin-1(2H)-yl)-4-methylbenzoyl)-3,9-diazaspiro[5.5]undecan-3-yl)ethyl)phenyl)-7H-pyrrolo[2,3-d]pyrimidin-4-yl)-5-fluoro-2-methylphenyl)-2-fluoro-4-(2-hydroxypropan-2-yl)benzamide]: the GI50 turned out to be 0.47 nM.

Turning to `Cc1c(NC(=O)c2ccc(C(C)(C)O)cc2F)cc(F)cc1-c1ncnc2[nH]c(-c3ccc(COC4CCN(CCC5CCN(C(=O)c6ccc(F)c(N7CCC(=O)NC7=O)c6)CC5)CC4)cc3)cc12` [Compound 6, N-(3-(6-(4-(((1-(2(1-(3-(2,4-dioxotetrahydropyrimidin-1(2H)-yl)-4-fluorobenzoyl)piperidin-4-yl)ethyl)piperidin-4-yl)oxyl)methyl)phenyl)-7H-pyrrolo[2,3-d]pyrimidin-4-yl)-5-fluoro-2-methylphenyl)-2-fluoro-4-(2-hydroxypropan-2-yl)benzamide], the GI50 is 0.53 nM.

In the case of `COc1ccc(C(=O)N2CCC(OC3CCN(Cc4ccc(-c5cc6c(-c7cc(F)cc(NC(=O)c8ccc(C(C)(C)O)cc8F)c7C)ncnc6[nH]5)cc4)CC3)CC2)cc1N1CCC(=O)NC1=O` [Compound 8, N-(3-(6-(4-((4-((1-(3-(2,4-dioxotetrahydropyrimidin-1(2H)-yl)-4-methoxybenzoyl)piperidin-4-yl)oxyl)piperidin-1-yl)methyl)phenyl)-7H-pyrrolo[2,3-d]pyrimidin-4-yl)-5-fluoro-2-methylphenyl)-2-fluoro-4-(2-hydroxypropan-2-yl)benzamide], the GI50 was 0.39 nM.

As for `COc1ccc(C(=O)N2CCC3(CCN(Cc4ccc(-c5cc6c(-c7cc(F)cc(NC(=O)c8ccc(C(C)(C)O)cc8F)c7C)ncnc6[nH]5)cc4)CC3)CC2)cc1N1CCC(=O)NC1=O` [Compound 9, N-(3-(6-(4-((9-(3-(2,4-Dioxotetrahydropyrimidin-1(2H)-yl)-4-methoxybenzoyl)-3,9-diazaspiro[5.5]undecan-3-yl)methyl)phenyl)-7H-pyrrolo[2.3-d]pyrimidin-4-yl)-5-fluoro-2-methylphenyl)-2-fluoro-4-(2-hydroxypropan-2-yl)benzamide], the GI50 is 0.52 nM.

Regarding `Cc1c(NC(=O)c2ccc(C(C)(C)O)cc2F)cc(F)cc1-c1ncnc2[nH]c(-c3ccc(CCN4CCC5(CC4)CCN(C(=O)c4cccc(N6CCC(=O)NC6=O)c4)CC5)cc3)cc12` [Compound 12, N-(3-(6-(4-(2-(9-(3-(2,4-Dioxotetrahydropyrimidin-1(2H)-yl)benzoyl)-3,9-diazaspiro[5,5]undecan-3-yl)ethyl)phenyl)-7H-pyrrolo[2,3-d]pyrimidin-4-yl)-5-fluoro-2-methylphenyl)-2-fluoro-4-(2-hydroxypropan-2-yl)benzamide], the GI50 is 0.93 nM.

For the compound `Cc1c(NC(=O)c2ccc(C(C)(C)O)cc2F)cc(F)cc1-c1ncnc2[nH]c(-c3ccc(CN4CCC5(CC4)CCN(C(=O)c4ccc(F)c(N6CCC(=O)NC6=O)c4)CC5)cc3)cc12` [Compound 14, N-(3-(6-(4-((9-(3-(2,4-Dioxotetrahydropyrimidin-1(2H)-yl)-4-fluorobenzoyl)-3,9-diazaspiro[5.5]undecan-3-yl)methyl)phenyl)-7H-pyrrolo[2.3-d]pyrimidin-4-yl)-5-fluoro-2-methylphenyl)-2-fluoro-4-(2-hydroxypropan-2-yl)benzamide], the GI50 was found to be 1.02 nM.

With `COc1ccc(C(=O)N2CCC(CN3CCC(Oc4ccc(-c5cc6c(-c7cc(F)cc(NC(=O)c8ccc(C(C)(C)O)cc8F)c7C)ncnc6[nH]5)cc4)CC3)CC2)cc1N1CCC(=O)NC1=O` [Compound 19, N-(3-(6-(4-((1-((1-(3-(2,4-Dioxotetrahydropyrimidin-1(2H)-yl)-4-methoxybenzoyl)piperidin-4-yl)methyl)piperidin-4-yl)oxyl)phenyl)-7H-pyrrolo[2,3-d]pyrimidin-4-yl)-5-fluoro-2-methylphenyl)-2-fluoro-4-(2-hydroxypropan-2-yl)benzamide], the GI50 was determined as 0.45 nM.

As to `COc1ccc(C(=O)N2CCC3(CC2)CCN(C(C)(C)Cc2ccc(-c4cc5c(-c6cc(F)cc(NC(=O)c7ccc(C(C)(C)O)cc7F)c6C)ncnc5[nH]4)cc2)CC3)cc1N1CCC(=O)NC1=O` [Compound 20, N-(3-(6-(4-(2-(9-(3-(2,4-Dioxotetrahydropyrimidin-1(2H)-yl)-4-methoxybenzoyl)-3,9-diazaspiro[5.5]undecan-3-yl)-2-methylpropyl)phenyl)-7H-pyrrolo[2,3-d]pyrimidin-4-yl)-5-fluoro-2-methylphenyl)-2-fluoro-4-(2-hydroxypropan-2-yl)benzamide], the GI50 was determined as 0.53 nM.

`COc1ccc(C(=O)N2CCN(C(=O)N3CCN(Cc4ccc(-c5cc6c(-c7cc(F)cc(NC(=O)c8ccc(C(C)(C)O)cc8F)c7C)ncnc6[nH]5)cc4)CC3)CC2)cc1N1CCC(=O)NC1=O` [Compound 22, N-(3-(6-(4-((4-(4-(3-(2,4-Dioxotetrahydropyrimidin-1(2H)-yl)-4-methoxybenzoyl)piperazine-1-carbonyl)piperazin-1-yl)methyl)phenyl)-7H-pyrrolo[2,3-d]pyrimidin-4-yl)-5-fluoro-2-methylphenyl)-2-fluoro-4-(2-hydroxypropan-2-yl)benzamide]: the GI50 was 4.82 nM.

Regarding `Cc1ccc(C(=O)N2CCC3(CCN(Cc4ccc(-c5cc6c(-c7cc(F)cc(NC(=O)c8ccc(C(C)(C)O)cc8F)c7C)ncnc6[nH]5)cc4)CC3)CC2)cc1N1CCC(=O)NC1=O` [Compound 27, N-(3-(6-(4-((9-(3-(2,4-Dioxotetrahydropyrimidin-1(2H)-yl)-4-methylbenzoyl)-3,9-diazaspiro[5.5]undecan-3-yl)methyl)phenyl)-7H-pyrrolo[2,3-d]pyrimidin-4-yl)-5-fluoro-2-methylphenyl)-2-fluoro-4-(2-hydroxypropan-2-yl)benzamide], the GI50 was 0.4 nM.

As for `Cc1cc(F)c(C(=O)NCCCCCNCc2ccc(-c3cc4c(-c5cc(F)cc(NC(=O)c6ccc(C(C)(C)O)cc6F)c5C)ncnc4[nH]3)cc2)cc1N1CCC(=O)NC1=O` [Compound 29, 5-(2,4-Dioxotetrahydropyrimidin-1(2H)-yl)-2-fluoro-N—(S-((4-(4-(5-fluoro-3-(2-fluoro-4-(2-hydroxypropan-2-yl)benzamido)-2-methylphenyl)-7H-pyrrolo[2,3-d]pyrimidin-6-yl)benzyl)amino)pentyl)-4-methylbenzamide], the GI50 came to 2.25 nM.

In the case of `Cc1ccc(C(=O)N(C)CCCCCNCc2ccc(-c3cc4c(-c5cc(F)cc(NC(=O)c6ccc(C(C)(C)O)cc6F)c5C)ncnc4[nH]3)cc2)cc1N1CCC(=O)NC1=O` [Compound 30, 3-(2,4-Dioxotetrahydropyrimidin-1(2H)-yl)-N-(5-((4-(4-(5-fluoro-3-(2-fluoro-4-(2-hydroxypropan-2-yl)benzamido)-2-methylphenyl)-7H-pyrrolo[2,3-d]pyrimidin-6-yl)benzyl)amino)pentyl)-N,4-dimethylbenzamide], the 50% growth inhibitory concentration (GI50) came to 5.2 nM.

Turning to `COc1ccc(C(=O)N2CCC3(CCN(CCc4ccc(-c5cc6c(-c7cc(F)cc(NC(=O)c8ccc(C(C)(C)O)cc8F)c7C)ncnc6[nH]5)cc4)CC3)CC2)cc1N1CCC(=O)NC1=O` [Compound 31, N-(3-(6-(4-(2-(9-(3-(2,4-Dioxotetrahydropyrimidin-1(2H)-yl)-4-methoxybenzoyl)-3,9-diazaspiro[5.5]undecan-3-yl)ethyl)phenyl)-7H-pyrrolo[2,3-d]pyrimidin-4-yl)-5-fluoro-2-methylphenyl)-2-fluoro-4-(2-hydroxypropan-2-yl)benzamide], the GI50 amounted to 0.46 nM.

On to `COc1ccc(C(=O)N2CCC(OC3CCN(CCc4ccc(-c5cc6c(-c7cc(F)cc(NC(=O)c8ccc(C(C)(C)O)cc8F)c7C)ncnc6[nH]5)cc4)CC3)CC2)cc1N1CCC(=O)NC1=O` [Compound 34, N-(3-(6-(4-(2-(4-((1-(3-(2,4-Dioxotetrahydropyrimidin-1(2H)-yl)-4-methoxybenzoyl)piperidin-4-yl)oxyl)piperidin-1-yl)ethyl)phenyl)-7H-pyrrolo[2,3-d]pyrimidin-4-yl)-5-fluoro-2-methylphenyl)-2-fluoro-4-(2-hydroxypropan-2-yl)benzamide], for which the GI50 is 1.7 nM.

With `COc1ccc(C(=O)NCCN2CCOC3(CCN(Cc4ccc(-c5cc6c(-c7cc(F)cc(NC(=O)c8ccc(C(C)(C)O)cc8F)c7C)ncnc6[nH]5)cc4)CC3)C2)cc1N1CCC(=O)NC1=O` [Compound 39, N-(3-(6-(4-((4-(2-(3-(2,4-dioxotetrahydropyrimidin-1(2H)-yl)-4-methoxybenzamido)ethyl)-1-oxa-4,9-diazaspiro[5.5]undecan-9-yl)methyl)phenyl)-7H-pyrrolo[2,3-d]pyrimidin-4-yl)-5-fluoro-2-methylphenyl)-2-fluoro-4-(2-hydroxypropan-2-yl)benzamide], the GI50 came out at 4.79 nM.

On to `COc1ccc(C(=O)N2CCN(CCCCNCc3ccc(-c4cc5c(-c6cc(F)cc(NC(=O)c7ccc(C(C)(C)O)cc7F)c6C)ncnc5[nH]4)cc3)CC2)cc1N1CCC(=O)NC1=O` [Compound 40, N-(3-(6-(4-(((4-(4-(3-(2,4-dioxotetrahydropyrimidin-1(2H)-yl)-4-methoxybenzoyl)piperazin-1-yl)butyl)amino)methyl)phenyl)-7H-pyrrolo[2,3-d]pyrimidin-4-yl)-5-fluoro-2-methylphenyl)-2-fluoro-4-(2-hydroxypropan-2-yl)benzamide], for which the GI50 stood at 3.43 nM.
